The target in data set [1] is T1, NMDA receptor (Rattus norvegicus, UniProt P35439).
T1 construct: After the rats were decapitated, the prefrontal cortex and hippocampus were rapidly separated on ice; from tissue; host or cells: SD male rat prefrontal cortex and hippocampus, crude synaptosomes
Kind of data set: NMDA receptor agonistic properties in rat crude synaptosomal proteins (maximum [3H]-MK-801 binding vs 1 mM glycine). The data set is classed as biochemical. To be noted: maximum [3H]-MK-801 binding % relative to 1 mM glycine; 50 μM glutamic acid. As to the method:
(§1) After the rats were decapitated, the prefrontal cortex and hippocampus were rapidly separated on ice and weighed, 10 volumes of 50 mM Tris-HCl buffer (50 mM Tris-HCl, 5 mM MgCl2·6H2O, 1 mM EDTA, 0.5% (W/V) BSA, 1 mM PMSF, 0.32 M sucrose, pH 7.4) was added, and the mixture was homogenized for five times at 1500 revolutions/min with 30 s each time. A homogenate was centrifuged for 10 min at 1000×g, and a supernatant was taken and centrifuged for 10 min at 40,000×g, the precipitates were collected, re-suspended with volumes of Tris-HCl buffer, incubated at 37° C. for 10 min, and centrifuged for 10 min at 40,000×g, finally the precipitates were re-suspended with the above buffer, aliquoted and stored at −80° C. for later use.
(3) Detection of Influence of Tested Medicines on NMDA Receptor Agonistic Properties in Rat Crude Synaptosomal Proteins
100 μg of rat crude synaptosomal proteins was added to all tubes respectively. 50 μl of 5,7-dichlorokynurenic acid was added to a non-specific binding tube to achieve a final concentration of 10 μM. All tubes were preloaded with 50 μM of glutamic acid, and the materials were reacted for 15 min in advance. 20 μL of control drug at corresponding concentration was added to the test tube, and then reacted for 15 min. 1 mM glycine was added to the maximum reaction tube. A volume of 30 μl of labeled ligand [^3H]-MK-801 was successively added to all tubes to achieve a final concentration of 10 nM, and reacted for 15 min. All reaction tubes were supplemented to a volume of 500 μl with 50 mM Tris-HCl buffer (50 mM Tris-HCl, 5 mM MgCl2·6H2O, 1 mM EDTA, 0.5% (WN) BSA, 0.1% NaN3, pH 7.4). A reaction was carried out at 37° C. for 15 min. A type-49 glass fiber filter membrane was prepared and a sample was applied at the same time. The filter membrane was placed in a multi-head cell collector, and the reaction system was subjected to suction filtration under negative pressure and washed with an ice-cold 50 mM Tris-HCl buffer, 10 ml each time, for a total of 5 times. After suction drying, 1 ml of scintillation liquid was added to the filter membrane, the filter membrane was placed on the shaker for shaking for 1.5 h and then placed in the liquid scintillation counter on the next day to determine the radioactive intensity.
In an agonistic experiment, maximum [^3H]-MK-801 binding %=((tested compounds cpm−5,7 dichlorokynurenic acid cpm)/(1 mM glycine cpm−5,7 dichlorokynurenic acid cpm))×100%.

The next data set relates to rats. Description: Forced swimming test in rats. The data set is classed as in vivo. Particulars: Rattus norvegicus, Po. Here is the method:
Pharmacodynamic evaluation was performed by the forced swimming tests in rats. The experimental animals were male SD rats weighing 150 g-180 g and being SPF grade, and acclimated for one week after purchase, and then subjected to forced swimming tests, the rats need be fasted for 12 hours before the tests. The compounds of examples were dissolved with normal saline, and blank control group (normal saline) and example compound administration group were established. 8-10 rats were provided for each group. On the day before the tests, the rats were placed in a glass cylinder with a height of 40 cm, an inner diameter of 18 cm, and a water depth of 23 cm for pre-swimming for 15 min, and a water temperature was 28° C. After the pre-swimming the rats were removed, wiped with a dry cloth, and dried with an electrical heater, then returned to a rearing cage, and administered. A formal forced swimming test was performed on the next day for a total of 5 min. The accumulated immobility time within 5 min was recorded, and a second forced swimming test was performed on the seventh day; the criteria for determining immobility were that the rats stopped struggling in the water, were in a floating state, and had only slight limb movements to keep the head floating on the water surface. The results are shown in Table 4, and the experimental data were statistically analyzed by GraphPad Prism 5.0 software.

Data set [2] in a line: In-vivo metabolism (pharmacokinetic) study in rats, oral / tail intravenous. To be noted: rat, plasma; for bioavailability: male, SD, oral 10 mg/kg vs intravenous 1 mg/kg, rats; for AUC(0-t) / Cmax: male SD rats. Here is the method:
The pharmacokinetic parameters such as exposure of plasma concentrations of the compounds of examples were evaluated by oral/tail intravenous injection model tests in rats in order to evaluate the in-vivo metabolic stability in rats.
The male SD rats weighing 200±20 g and being SPF grade were used in this experiment and purchased from SPF.
Preparation of intravenous solution: 1 mg of each tested medicine was weighed accurately, and a volume was metered to 5 mL with 0.9% sodium chloride solution to prepare 0.2 mg/mL. A dose volume was 1 mL for per 200 g of weight, and the dose was 1 mg for per 1 kg of weight based on the concentration conversion.
Preparation of intragastric solution: 10 mg of each tested medicine was accurately weighed, and a volume was metered to 10 mL with 0.9% sodium chloride solution to prepare 1 mg/mL of the solution. A dose volume was 2 mL for per 200 g of weight, and the dose was 10 mg for per 1 kg of weight based on the concentration conversion.
Rats were randomly divided into 8 groups, 6 rats were in each group, oral gavage administration and tail intravenous administration were performed according to the above doses. About 0.2 mL of orbital blood was collected before administration and at 2 min, 5 min, 15 min, 30 min, 1 h, 2 h, 3 h, 4 h and 6 h after administration, respectively, and centrifuged at 3000 rpm for 10 min at 4° C., and a supernatant was taken for LC/MS/MS determination. A DAS pharmacokinetics program was used to analyze the measured data and calculate the main pharmacokinetic parameters.

Data set [3] has as its target T1, NMDA receptor. Kind of data set: Inhibition of [3H]-MK-801 binding to rat crude synaptosomes (receptor ligand binding assay). To be noted: affinity on NMDA; [3H]-MK-801 10 nM, rat prefrontal cortex and hippocampus crude synaptosomes; read-out: IC50. As to the method:
The affinity of the tested compounds on NMDA receptor was researched by receptor ligand binding assays.
Ten SD male rats of SPF grade were ordered and acclimated for 7 days for future use.
as §1
(2) Detection of Inhibitory Function of Tested Medicines on Binding of Crude Synaptosomes in Rats to [^3H]-MK-801
50 μg of rat crude synaptosomal proteins was added to all tubes respectively. A volume of 50 μl of MK-801 (dizocilpine) was added to a non-specific binding tube to achieve a final concentration of 100 μM, and the materials were reacted for 15 min in advance. 20 μL of control drug at corresponding concentration was added to the test tube for reaction for 15 min. A volume of 30 μl of labeled ligand [^3H]-MK-801 was successively added to all tubes to achieve a final concentration of 10 nM. All reaction tubes were supplemented to a volume of 200 μl with 50 mM Tris-HCl buffer (50 mM Tris-HCl, 5 mM MgCl2·6H2O, 1 mM EDTA, 0.5% (WN) BSA, 0.1% NaN3, pH 7.4). A reaction was carried out at 37° C. for 10 min. A type-49 glass fiber filter membrane was prepared and a sample was applied at the same time. The filter membrane was placed in a multi-head cell collector, and a reaction system was subjected to suction filtration under negative pressure and washed with an ice-cold 50 mM Tris-HCl buffer, 10 ml each time, for a total of 5 times. After suction drying, 1 ml of scintillation liquid was added to the filter membrane, the filter membrane was placed on a shaker for shaking for 1.5 h and then placed in a liquid scintillation counter on the next day to determine the radioactive intensity.
GraphPad5.0 software was used to analyze the data, and the percentage of competitive inhibition was calculated through nonlinear fitting, wherein:
Percentage of competitive inhibition %=((total binding tube cpm−compound cpm)/(total binding tube cpm−non-specific binding tube cpm))×100%;
Specific binding amount=total binding amount−non-specific binding amount, wherein each binding site was determined by double compound tubes.

[4] abbreviates: 48 h, Day 2, *P<0.05, **P<0.01 compared with the control group, read-out: Reduction percentage (%) of floating time, Day 2.
The mark [5] stands for this setting: 168 h, Day 7, *P<0.05, **P<0.01 compared with the control group, read-out: Reduction percentage (%) of floating time, Day 7.

The term bioavailability denotes dose-corrected exposure relative to a reference, in per cent. Read a high bioavailability as much systemic uptake. One may read the AUC(0-t) as exposure summed from dosing to a finite time, without extrapolation to infinity. Read a low AUC(0-t) as low exposure. Broadly, the Cmax is the highest concentration seen after dosing. The IC50 is the concentration that inhibits the measured activity by half.

Read-outs that look alike come from different tables or passages of the source.

For the molecule `CC(=O)N1CCSC12CN(C(=O)[C@@H](N)[C@@H](C)O)C2.Cl` [A-066], the “Maximum agonistic efficacy (%)” value on NMDA receptor [1] is 29%. The inhibition in vivo at 0.1 mg/kg is 68% in the data set on rats (setting [4]) and 55.3% with rats (setting [5]). This molecule also showed a bioavailability in data set [2] of 54.5%. The AUC(0-t) in data set [2] (Intravenous injection, 1 mg/kg) amounted to 1380 ng·h/mL; in data set [2] (Oral, 10 mg/kg) it was 7560 ng·h/mL. The Cmax was found to be 1690 ng/mL in data set [2] (Intravenous injection, 1 mg/kg) and 2080 ng/mL in data set [2] (Oral, 10 mg/kg). For the same molecule, the concentration for half-maximal inhibition (IC50) on NMDA receptor [3] was 350 pM.

Consider `CC(C)C(=O)N1CCSC12CN(C(=O)[C@@H](N)[C@@H](C)O)C2.Cl` [A-098], for which the “Maximum agonistic efficacy (%)” value at NMDA receptor [1] was determined as 28%. Moreover, the inhibition in vivo at 0.1 mg/kg with rats (setting [4]) was found to be 64.5%; in the data set with rats (setting [5]), 13.9%. Moreover, the bioavailability in data set [2] was 19.1%. The exposure AUC(0-t) in data set [2] (Intravenous injection, 1 mg/kg) came out at 952 ng·h/mL; in data set [2] (Oral, 10 mg/kg) it was 1820 ng·h/mL. For the same molecule, the Cmax amounted to 1090 ng/mL in data set [2] (Intravenous injection, 1 mg/kg) and 767 ng/mL in data set [2] (Oral, 10 mg/kg). The 50% inhibitory concentration (IC50) at NMDA receptor [3] amounted to 980 pM.

As to `C[C@@H](O)[C@H](N)C(=O)N1CC2(C1)N[C@H](C(N)=O)CS2.Cl` [A-258], at NMDA receptor [1], the “Maximum agonistic efficacy (%)” value amounted to 21%. In addition, the inhibition in vivo at 0.1 mg/kg was 74.8% in the data set on rats (setting [4]) and 56.4% in the data set on rats (setting [5]). In data set [2], this molecule gave a bioavailability of 27.3%. Besides, the AUC(0-t) in data set [2] (Intravenous injection, 1 mg/kg) was determined as 4180 ng·h/mL; in data set [2] (Oral, 10 mg/kg) it was 11400 ng·h/mL. In addition, the Cmax in data set [2] (Intravenous injection, 1 mg/kg) is 3630 ng/mL; in data set [2] (Oral, 10 mg/kg) it was 4910 ng/mL. For the same molecule, the IC50 at NMDA receptor [3] was found to be 330 pM.

In the case of `CC(C)[C@H](N)C(=O)N1CC2(C1)N[C@H](C(N)=O)CS2.Cl` [A-260], the “Maximum agonistic efficacy (%)” value at NMDA receptor [1] was 26%. Further, the inhibition in vivo at 0.1 mg/kg with rats (setting [4]) is 31.6%; in the data set with rats (setting [5]) it was 15.5%. This molecule also gave a bioavailability in data set [2] of 74.6%. Besides, the AUC(0-t) in data set [2] (Intravenous injection, 1 mg/kg) turned out to be 1450 ng·h/mL; in data set [2] (Oral, 10 mg/kg) it was 10800 ng·h/mL. Moreover, the maximum concentration (Cmax) came out at 2240 ng/mL in data set [2] (Intravenous injection, 1 mg/kg) and 6210 ng/mL in data set [2] (Oral, 10 mg/kg). Besides, the IC50 at NMDA receptor [3] was 260 pM.
